Measured values: patent publication US7432225B2, “Selective herbicides based on substituted cyclic keto-enols and safeners” (Bayer CropScience AG, priority 2001, dated 2008)

Assays:
[1] = system: Winter barley; assay: Post-emergence test, degree of damage to crop plants; assay type: in vivo; conditions: rated about three weeks after application
Experimental: (§1) The active compound or safener components are in each case dissolved in a few ml (generally 2-3 ml) of solvent (generally acetone or N,N-dimethyl-formamide), and the solutions are combined and then—if appropriate after addition of an emulsifier—diluted with water to the desired concentration. In general, an aqueous spray liquor was prepared using 0.1% of the additive Renex-36.
(§2) The test plants are grown under controlled conditions (temperature, light, atmospheric humidity) in a greenhouse. The test plants are sprayed when they have reached a height of 5-15 cm. The concentration of the spray liquor is chosen such that the particular amounts of active compound desired are applied in 500 l of water/ha.
(§3) After spraying, the pots with the test plants are kept in a greenhouse chamber under controlled conditions (temperature, light, atmospheric humidity) until the test has ended. About three weeks after the application, the degree of damage to the crop plants is rated in % damage in comparison to the development of the untreated control.
(§4) The figures denote: • 0% no damage (like untreated control) • 100% total destruction/damage

[2] = system: Winter wheat; assay: as above; assay type: in vivo; conditions: rated about three weeks after application
Experimental: as §1, §2, §3, §4

[3] = application rate 125 g of ai/ha
[4] = application rate 250 g of ai/ha
[5] = safener alone, application rate 50 g of ai/ha

| SMILES | Winter barley observed (% damage) ([1]; application rate 60 g of ai/ha) | Winter barley observed (% damage) [1, 3] | Winter barley observed (% damage) [1, 4] | Winter wheat observed (% damage) [2, 3] | Winter wheat observed (% damage) [2, 4] | Winter barley observed (% damage) [1, 5] | Winter wheat observed (% damage) [2, 5] | other results |
| --- | --- | --- | --- | --- | --- | --- | --- | --- |
| CCCC1(C)NC(=O)C(c2c(C)cc(C)cc2C)=C1O (stereo not drawn) [Example I-1-a-1] |  |  |  |  |  |  |  | Winter barley observed (% damage) ([1]; application rate 110 g of ai/ha): 10%; Winter barley observed (% damage) ([1]; application rate 220 g of ai/ha): 25%; Winter barley observed (% damage) ([1]; application rate 440 g of ai/ha): 70% |
| CCc1cc(Br)cc(C)c1C1=C(O)C2(CCC(C)CC2)NC1=O (stereo not drawn) [Example I-1-a-2] | 5% | 20% | 65% | 10% | 40% |  |  |  |
| CCc1cc(Br)cc(CC)c1C1=C(O)C(C)(C(C)C)NC1=O (stereo not drawn) [Example I-1-a-3] |  |  | 40% | 10% | 15% |  |  |  |
| Cc1cc(-c2ccc(Cl)cc2)cc(C)c1C1=C(O)C2(CCOCC2)NC1=O [Example I-1-a-4] | 5% | 35% | 35% |  |  |  |  |  |
| CCOC(=O)C1=NN(c2ccc(Cl)cc2Cl)C(C)(C(=O)OCC)C1 (stereo not drawn) [Mefenpyr-diethyl, diethyl 1-(2,4-dichloro-phenyl)-4,5-dihydro-5-methyl-1H-pyrazole-3,5-dicarboxylate, reference compound] |  |  |  |  |  | 0% | 0% |  |
| CCCCCC(C)OC(=O)COc1ccc(Cl)c2cccnc12 (stereo not drawn) [cloquintocet-mexyl, 1-methyl-hexyl 5-chloro-quinolin-8-oxy-acetate, reference compound] |  |  |  |  |  | 0% | 0% |  |
